Values quoted from earlier work, collected in paper PMC5517430, “2,3,7,8-Tetrachlorodibenzo-p-dioxin (TCDD)-elicited effects on bile acid homeostasis: Alterations in biosynthesis, enterohepatic circulation, and microbial metabolism” (Scientific Reports, 2017).

System: FXR
Set-up: method as in PMID 23395169
Details: cited from earlier work

Compound	FXR antagonism
C[C@H](CCC(=O)NCCS(=O)(=O)O)[C@H]1CC[C@H]2[C@@H]3[C@H](O)[C@@H](O)[C@@H]4C[C@H](O)CC[C@]4(C)[C@H]3CC[C@]12C [T-α-MCA, tauro-α-muricholic acid]	competitive antagonists
C[C@H](CCC(=O)NCCS(=O)(=O)O)[C@H]1CC[C@H]2[C@@H]3[C@@H](O)[C@@H](O)[C@@H]4C[C@H](O)CC[C@]4(C)[C@H]3CC[C@]12C [T-β-MCA]	competitive antagonists
